According to ChEMBL document CHEMBL1123679, “5-Quinone derivatives of 2'-deoxyuridine 5'-phosphate: inhibition and inactivation of thymidylate synthase, antitumor cell, and antiviral studies” (J Med Chem, 1987):
One block for each molecule: values may come before it.

Columns and labels:
[1] = target: T1, Thymidylate synthase (Lactobacillus casei) (UniProt P00469); conditions: Lacticaseibacillus casei; 10 uM
T1 sequence (whole entry): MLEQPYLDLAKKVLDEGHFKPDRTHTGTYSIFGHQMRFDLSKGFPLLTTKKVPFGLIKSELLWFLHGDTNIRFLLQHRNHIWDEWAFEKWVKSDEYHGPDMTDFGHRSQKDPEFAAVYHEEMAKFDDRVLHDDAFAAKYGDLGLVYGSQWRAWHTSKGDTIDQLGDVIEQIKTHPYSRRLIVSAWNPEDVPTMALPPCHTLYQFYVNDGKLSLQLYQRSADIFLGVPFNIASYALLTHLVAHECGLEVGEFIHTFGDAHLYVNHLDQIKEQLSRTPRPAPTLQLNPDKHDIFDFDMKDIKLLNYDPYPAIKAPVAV

[2] = target: T1, Thymidylate synthase (Lactobacillus casei); conditions: Lacticaseibacillus casei
[3] = Apparent second order rate constant determined as the ratio of kinact/Ki
[4] = target: T1, Thymidylate synthase (Lactobacillus casei); assay: Kinetic constant for inactivation of Lactobacillus casei thymidylate synthase from double reciprocal plots; conditions: Lacticaseibacillus casei
[5] = target: T1, Thymidylate synthase (Lactobacillus casei); conditions: Lacticaseibacillus casei; remark: listed apart in the source
[6] = target: T1, Thymidylate synthase (Lactobacillus casei); conditions: Lacticaseibacillus casei; remark: listed apart in the source
[7] = target: T1, Thymidylate synthase (Lactobacillus casei); conditions: Lacticaseibacillus casei; remark: listed apart in the source
[8] = target: T1, Thymidylate synthase (Lactobacillus casei); conditions: Lacticaseibacillus casei; remark: listed apart in the source
[9] = target: T1, Thymidylate synthase (Lactobacillus casei); conditions: Lacticaseibacillus casei; remark: listed apart in the source
[10] = target: T1, Thymidylate synthase (Lactobacillus casei); conditions: Lacticaseibacillus casei; remark: listed apart in the source
[11] = target: T1, Thymidylate synthase (Lactobacillus casei); conditions: Lacticaseibacillus casei; remark: listed apart in the source
[12] = target: T1, Thymidylate synthase (Lactobacillus casei); assay: Kinetic constant for the inactivation of Lactobacillus casei thymidylate synthase was determined at 10 uM concentration using 0 uM of substrate; conditions: Lacticaseibacillus casei

K obs / s [1]: 0.0084
K inact [2]: 0.014 s⁻¹
SMILES: CC1=C(C)C(=O)C(c2cn([C@H]3C[C@H](O)[C@@H](COP(=O)(O)O)O3)c(=O)[nH]c2=O)=C(C)C1=O

Ratio [3]: 3.2
K inact [4]: 0.065 s⁻¹
SMILES: O=C1C=CC(=O)C(c2cn([C@H]3C[C@H](O)[C@@H](COP(=O)(O)O)O3)c(=O)[nH]c2=O)=C1

SMILES: CC1=C(C)C(=O)C(c2cn([C@H]3C[C@H](O)[C@@H](COP(=O)(O)O)O3)c(=O)[nH]c2=O)=CC1=O
k obs [5]: 0.0092 s⁻¹
k obs [6]: 0.0052 s⁻¹
k obs [7]: 0.011 s⁻¹
K inact [2]: 0.015 s⁻¹
k obs [8]: 0.015 s⁻¹
k obs [9]: 0.011 s⁻¹
Ratio [3]: 2.5
k obs [10]: 0.0066 s⁻¹
k obs [11]: 0.0028 s⁻¹

SMILES: CC1=C(C)C(=O)C(c2cn([C@H]3C[C@H](O)[C@@H](CO)O3)c(=O)[nH]c2=O)=CC1=O
k obs [12]: 4e-05 s⁻¹
